Reference: patent publication US20240269292A1
Entries after “also recorded” stand apart in the source; their conditions may differ. Non-standard residues stand in square brackets, D forms with d. Residues, ends and D or L forms follow the SMILES beside them. Dmt = Cc1cc(O)cc(C)c1C[C@H](N)C(=O)O

Legend:
[1] = Hydrophobicity and aqueous solubility; type: physicochemical
[2] = Accelerated in vitro release assay with complexation agents in methyl laurate; type: physicochemical; settings: EY005 MTT formulated with various complexation agents, methyl laurate dispersal medium
From the text: In all cases, all EY005 was rapidly released, in some cases within hours, and in all cases by day 3.

[3] = In vitro release kinetics of pilot formulation of Mito XR; type: physicochemical; settings: same complexation agent and dispersal medium as Mito XR
[4] = rabbit
From the text: In some examples, cleavage and release of the free bioactive mitochondrial targeted tetrapeptide can be assessed following in vivo injection of the implant containing the prodrug within the extended release drug delivery system into the vitreous cavity or periocular tissues of a preclinical animal model (e.g., mouse, rat, rabbit, pig, etc.) (FIG. 29), wherein ocular tissue is recovered, and analytic methods such as HPLC or mass spectrometry can be used to calculate the amount of free bioactive mitochondrial targeted tetrapeptide and intact prodrug, at various timepoints after in vivo injection.

[5] = system: retinal pigment epithelium (RPE) cells; assay: Dysregulated extracellular matrix (vimentin) in HQ-exposed RPE cells; type: cell-based; settings: ≥5 μM
Method: (§1) Cells are then treated with drug (or control phosphate-buffered saline (PBS) solution) and assayed for effects on mitochondrial dysfunction and other cellular changes.
(§2) Mitochondrial dysfunction can be modeled using in vitro cell culture systems relevant to retinal disease. In one such system, retinal pigment epithelium (RPE) cells are cultured to post-confluence to establish a differentiated cell monolayer and are then assayed for mitochondrial dysfunction and effect of drugs for treatment of mitochondrial dysfunction (FIG. 5). In this model, mitochondrial dysfunction is induced by two exposures to nonlethal doses of hydroquinone (HQ) at day −3 and day 0. Hydroquinone (HQ), a well-known environmental toxicant ubiquitously present in Western lifestyle, is a biochemical inducer of mitochondrial dysfunction. […] Cells are then treated with a drug of interest (mitochondrial targeted peptide drug or a prodrug thereof) or control (phosphate-buffered saline (PBS) solution and assayed for effects on mitochondrial dysfunction, as measured by microscopy of flavoprotein autofluorescence (a measure of mitochondrial electron transport chain complex II decompensation) (FIG. 6).

[6] = system: retinal pigment epithelium (RPE) cells; type: cell-based
Method: as §1
Mitochondrial dysfunction is manifest as increased flavoprotein autofluorescence (upper panels) and as dysmorphology of the actin cytoskeleton (lower panels). […] EY005-stearyl was also preincubated with carboxyesterase (0.1 μg/mL) in separate media.
Mitochondrial dysfunction can be modeled using in vitro cell culture systems relevant to retinal disease. In one such system, retinal pigment epithelium (RPE) cells are cultured to post-confluence to establish a differentiated cell monolayer and are then assayed for mitochondrial dysfunction and effect of drugs for treatment of mitochondrial dysfunction (FIG. 5). In this model, mitochondrial dysfunction is induced by two exposures to nonlethal doses of hydroquinone (HQ) at day −3 and day 0. Hydroquinone (HQ), a well-known environmental toxicant ubiquitously present in Western lifestyle, is a biochemical inducer of mitochondrial dysfunction. When HQ is added to fully differentiated RPE cell cultures, HQ competes with mitochondrial ubiquinone, siphoning high-energy electrons from electron transport chain, which then reduces oxygen into superoxide, leading to cardiolipin peroxidation and mitochondrial dysfunction. Cells are then treated with a drug of interest (mitochondrial targeted peptide drug or a prodrug thereof) or control (phosphate-buffered saline (PBS) solution and assayed for effects on mitochondrial dysfunction, as measured by microscopy of flavoprotein autofluorescence (a measure of mitochondrial electron transport chain complex II decompensation) (FIG. 6).

[7] = system: retinal pigment epithelium (RPE) cells; assay: HQ-induced mitochondrial dysfunction in RPE cells (flavoprotein autofluorescence); type: cell-based; settings: HQ-exposed RPE cells, versus elamipretide or native EY005
Method: as §1, §2

[8] = Theoretical in vivo release pharmacokinetics from XRDDS in vitreous cavity of rabbit eyes (FIGS. 31-32); settings: theoretical data
From the text: FIG. 31 illustrates theoretical in vivo release pharmacokinetic data comparing release kinetics of unmodified EY005 from the novel extended-release drug delivery system to that of two EY005 prodrugs, each of which is also formulated in the novel extended-release drug delivery system and injected into the vitreous cavity of rabbit eyes.
FIG. 32 illustrates theoretical in vivo release pharmacokinetic data comparing release kinetics of unmodified EY005 from the novel extended-release drug delivery system to that of two EY005 prodrugs, each of which is also formulated in the novel extended-release drug delivery system and injected into the vitreous cavity of rabbit eyes.

mouse retinal tissues = assay: Mouse experimental retinal vein occlusion (RVO) model; type: in vivo
From the text: Control, untreated mice show undetectable FP-AF and superoxide.
Control, untreated mice show normal synaptic markers.
FIGS. 11H-111 show visual function as quantified by electroretinogram (ERG) in mice treated with control, RVO and RVO with EY005 pretreatment or EY005 post-treatment. B-wave amplitudes were quantified from at least 5 eyes for each condition.

[9] = In vivo kinetics after intravitreal Mito XR bolus in rabbit eyes, LC/MS
[10] = system: retinal pigment epithelium (RPE) cells; assay: Actin cytoskeleton disorganization (phalloidin) in HQ-exposed RPE cells; type: cell-based; settings: 5 μM
Method: as §1, §2

rabbit RPE = assay: Rabbit ocular hydroquinone (HQ) model of dry AMD; type: in vivo
RPE cells of rabbit eyes = assay: Rabbit ocular hydroquinone (HQ) model of dry AMD (DCFDA, vimentin, phalloidin on RPE flatmounts); type: in vivo
Method: FIG. 12 illustrates one example of a relevant animal model, specifically a rabbit-based protocol used to characterize the prodrugs of mitochondrial targeted tetrapeptides described herein. In this model, HQ (0.05 mL, 250 mM HQ) is injected into the vitreous cavity of rabbit eye on day 0 and day 1, and drug of interest (mitochondrial targeted peptide or prodrug thereof) or control (PBS) solution is injected into the same vitreous cavity of the rabbit eye at day 2. At day 4, the rabbit is euthanized, and eyes recovered for histologic analysis of retina and RPE flatmounts for various metrics, including cellular oxidation (DCFDA), as a surrogate of mitochondrial dysfunction, as well as for other cellular markers.
The rabbit hydroquinone (HQ) model of dry AMD (FIG. 12) was induced and flatmount of retinal pigment epithelium (RPE) were isolated.
Scores were determined by masked expert graders in at least 100 RPE cells from at least 3 eyes per condition.
A rabbit model of mitochondrial dysfunction is also used to assay bioactivity of MTT and prodrugs derived thereof. […] On day 2, the MTT (e.g., EY005, 15 μM) were injected IVT. On day 3, a fluorogenic dye that measures hydroxyl, peroxyl and other reactive oxygen species (e.g., DCFDA) was injected IVT, and tissues were collected 12 hours later. RPE flatmounts were processed for multiple readouts: oxidation byproducts (DCFDA, FIG. 13) and measures of RPE-associated extracellular matrix (cytosolic vimentin expression, FIG. 14), and RPE cell dysmorphology (i.e., actin cytoskeleton (phalloidin), FIG. 14). All were analyzed and quantified by microscopy.
For example, in the rabbit ocular hydroquinone model, systemic administration of the maximally tolerated human dose of mitochondrial-targeted peptide (EY005) allometrically scaled for the rabbit, only partially restores RPE actin cytoskeletal integrity (FIG. 15D). In contrast, IVT injection of EY005 results in downregulation of RPE vimentin expression (FIG. 14) and restoration of normal RPE actin cytoskeleton integrity (FIG. 15C). […] IVT EY005 treatment produced an approximately 75% reduction of oxidation byproducts. […] In this setting, retinal and RPE tissue levels achieved by IVT administration in rabbits are substantially higher than tissue levels obtained by SQ administration of the maximally tolerated human dose allometrically scaled for rabbits.

[11] = cultured RPE cells, dose-response
[12] = cultured RPE cells, high dose (≥5 μM)
[13] = rabbit, single IVT dose of 15 μg, 36 hrs. after drug treatment

Structure (SMILES): Cc1cc(O)cc(C)c1C[C@H](NC(=O)[C@H](N)CCCNC(=N)N)C(=O)N[C@@H](CCCCN)C(=O)N[C@@H](Cc1ccccc1)C(=O)O [EY005, H-d-Arg-DMT-Lys-Phe] (H-[dR][Dmt]KF-OH)
- Hydrophobicity [1]: highly hydrophilic
- Aqueous solubility ([1]; native form): high aqueous solubility
- time by which all EY005 was released [2]: ≤ 3 days
- release of native peptide formulated identically to Mito XR [3]: extremely rapid release; also recorded: excessive release
- residual drug in recovered bolus, native peptide formulation ([4]; IVT bolus formulation of EY005 native peptide): contained no EY005 native peptide; also recorded: no residual drug in the recovered bolus
- time by which tissue concentrations were nearly undetectable ([4]; IVT identical bolus formulation containing EY005 native peptide): ≤ 3.5 week
- time beyond which EY005 tissue levels were not detectable ([4]; IVT multiphasic colloidal suspension bolus of EY005 native peptide): ≤ 21 days
- Reversal of dysregulated extracellular matrix (vimentin) [5]: reverses dysregulation of RPE extracellular matrix
- reversal of HQ-induced mitochondrial dysfunction (flavoprotein autofluorescence) ([6]; HQ-exposed cultured RPE cells): reversal of induced mitochondrial dysfunction; also recorded: near complete reversal of mitochondrial dysfunction
- efficacy and potency for reduction of flavoprotein autofluorescence compared to elamipretide ([6]; HQ-exposed cultured RPE cells, dose-response): equivalent efficacy and potency; also recorded: comparable or equivalent dose-response and potency to elamipretide
- efficacy and potency for reversal of actin cytoskeleton disorganization compared to elamipretide [6, 11]: equivalent efficacy and potency
- efficacy and potency for reversal of dysregulated extracellular matrix (vimentin) compared to elamipretide [6, 11]: equivalent efficacy and potency
- reversal of actin cytoskeleton disorganization (phalloidin staining) [6, 12]: reversal of actin cytoskeleton disorganization
- reversal of dysregulated extracellular matrix (vimentin expression) [6, 12]: reversal of dysregulated extracellular matrix
- Potency for reversal of mitochondrial dysfunction relative to comparator [7]: equipotent to elamipretide
- time to nearly complete release of unmodified EY005 from XRDDS [8]: approximately 30 days
- markers of mitochondrial dysfunction (flavoprotein autofluorescence and superoxide) following RVO (mouse retinal tissues; mouse, 3 mg/kg BID subcutaneous): significantly attenuates both markers of mitochondrial dysfunction
- synaptic markers (SV2, ZNP-1) in inner and outer plexiform layers following RVO (mouse retinal tissues; mouse, 3 mg/kg BID subcutaneous, pretreatment or posttreatment): significantly prevents (pretreatment) and reverses (posttreatment) loss of synaptic markers
- ERG B-wave amplitude following RVO (mouse retinal tissues; mouse, pretreatment or post-treatment): significantly prevented or reversed loss of B-wave amplitude
- efficacy in treatment of mouse model of RVO (mouse retinal tissues; systemic dose greater than the maximally tolerated dose in humans (allometrically scaled)): partially effective
- Residual drug in recovered bolus ([9]; bolus formulation of EY005 native peptide): no residual drug
- Retinal tissue concentrations ([9]; through 7-week timepoint (Mito XR), week 3.5 (EY005 native peptide bolus)): nearly undetectable
- Reversal of actin cytoskeleton disorganization [10]: restores normal RPE cell morphology
- Reversal of RPE cytoskeletal dysmorphology (rabbit RPE; 0.9 mg/kg subcutaneous once daily): only partially effective
- Efficacy of intravitreal versus subcutaneous administration (rabbit RPE; intravitreal injection): significantly more effective
- reversal of mitochondrial dysfunction (oxidant species) in RPE of rabbit eyes (RPE cells of rabbit eyes; rabbit HQ model, 15 μM IVT, within 36 hours of treatment): reduced oxidant species; also recorded: potent for reversal of mitochondrial dysfunction
- reversal of RPE cytoskeletal dysmorphology, intravitreal (RPE cells of rabbit eyes; rabbit HQ model, intravitreal 15 μM): near complete reversal of RPE cytoskeletal dysmorphology
- reversal of RPE cytoskeletal dysmorphology, subcutaneous (RPE cells of rabbit eyes; rabbit HQ model, subcutaneous 0.9 mg/kg once daily): only partial reversal of RPE cytoskeletal dysmorphology
- retinal toxicity (RPE cells of rabbit eyes; rabbit, single IVT dose of 15 μg): no retinal toxicity was observed
- reduction of cytoskeleton disorganization (phalloidin) (RPE cells of rabbit eyes; [13]): approximately 80%
- reduction of oxidation byproducts (DCFDA) (RPE cells of rabbit eyes; [13]): approximately 75%
- reversal of vimentin stain (RPE cells of rabbit eyes; [13]): approximately 90%
